The structures appear in SMILES notation. In brackets after ≈: the same amount, converted by molar mass.

In experiment [1] the test system is C. albicans laboratory strain SC5314. Nature of the experiment: C. albicans susceptibility testing (CLSI broth microdilution MIC), strain SC5314. Conditions: RPMI 1640, 37 °C, read at 48 h; for MIC: Candida albicans, SC5314, 48 h. Type of experiment: cell-based, Candida albicans. The source says:
(§1) Each novel compound was screened against C. albicans wild-type clinical isolate CA14 and C. albicans laboratory strain SC5314 using the standardised CLSI M27-S4 broth dilution method.[28] […] This might be explained by the clog P data as the more lipophilic compounds should more readily penetrate the fungal membrane resulting in improved uptake or may relate to optimal fill of the small hydrophobic pocket leading to improved binding.
(§2) Antifungal MIC values were obtained according to the CLSI microdilution method for yeasts.[28]C. albicans strains CA14 and SC5314 were tested in triplicate. Cultures were diluted to 2.5 × 10^3 cells per mL in RPMI 1640 (Sigma), buffered with 0.165 M MOPS, pH 7.0. Antifungal compounds were dissolved in DMSO and added at a final concentration of 1% v/v DMSO. Plates were incubated at 37 °C and read at 48 h.

Experiment [2] relates to C. albicans wild-type clinical isolate CA14. The experiment can be described thus: C. albicans susceptibility testing (CLSI broth microdilution MIC), strain CA14. Format: cell-based, Candida albicans. As to conditions: RPMI 1640, 37 °C, read at 48 h; for MIC: Candida albicans.
From the text: as §1, §2

In the next experiment the target is T1, native CaCYP51 (Candida albicans, UniProt P10613).
T1 construct: made in house; host or cells: E. coli
T1 sequence (P10613 whole entry): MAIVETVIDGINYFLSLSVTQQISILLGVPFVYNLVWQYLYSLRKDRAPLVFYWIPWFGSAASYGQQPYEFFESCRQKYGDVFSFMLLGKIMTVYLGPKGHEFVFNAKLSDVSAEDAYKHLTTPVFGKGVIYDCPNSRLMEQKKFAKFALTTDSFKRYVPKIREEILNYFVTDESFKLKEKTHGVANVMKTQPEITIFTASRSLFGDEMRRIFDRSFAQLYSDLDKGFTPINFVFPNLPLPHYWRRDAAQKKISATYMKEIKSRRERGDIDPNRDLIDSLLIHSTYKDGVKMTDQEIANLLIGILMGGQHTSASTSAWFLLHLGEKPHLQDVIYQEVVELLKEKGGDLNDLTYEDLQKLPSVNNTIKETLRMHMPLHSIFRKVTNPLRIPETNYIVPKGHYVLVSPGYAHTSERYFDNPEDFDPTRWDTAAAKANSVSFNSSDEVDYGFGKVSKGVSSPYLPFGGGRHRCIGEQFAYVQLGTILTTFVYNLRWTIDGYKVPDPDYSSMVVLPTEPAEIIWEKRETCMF
The experiment can be described thus: CaCYP51 type II ligand binding affinity (Kd) from difference spectra saturation curves. Conditions: 2.5 μM native CaCYP51; mean ± SD of three titrations; read-out: K d. The protocol:
Azole titration was performed in triplicate.
The ligand–CaCYP51 complex was determined by non-linear regression (Levenberg–Marquardt algorithm) using a rearrangement of the Morrison equation for tight ligand binding,[38] while weak ligand binding was calculated by the Michaelis–Menten equation. Curve fitting for novel azole saturation curves was performed using the computer program ProFit 6.1.12 (QuantumSoft, Zurich, Switzerland) for Mac OSX. Kd values were determined for each of the three replicate titrations per azole compound and then mean Kd values and standard deviations calculated.

For experiment [3], the target named is T2, C. albicans CYP51 (CaCYP51) (Candida albicans, UniProt P10613).
T2 construct: made in house; host or cells: E. coli
T2 sequence (P10613 whole entry): as above
Nature of the experiment: CaCYP51 reconstitution assay (IC50). Format: biochemical. As to conditions: 1 μM CaCYP51, 60 μM lanosterol, 15 min at 37 °C. The protocol:
Derivatives with a MIC <1 μg mL^−1 were chosen for IC50 testing.
C. albicans CYP51 was overexpressed in E. coli and purified and CaCYP51 reconstitutions assays performed.[10,37] The final reaction volume of 500 μL, contained; 1 μM C. albicans CYP51, 2 μM Homo sapiens cytochrome P450 reductase (CPR) (UniProtKB accession number P16435), 60 μM lanosterol, 50 μM dilaurylphosphatidylcholine, 4% w/v 2-hydroypropyl-cyclodextrin, 0.4 mg mL^−1 isocitrate dehydrogenase, 25 mM trisodium isocitrate, 50 mM NaCl, 5 mM MgCl2, and 40 mM MOPS (morpholinepropanesulfonic acid, pH 7.2). Antifungal compounds were added in 2.5 μL DMSO. The reaction was started by the addition of 4 mM NADPH-tetrasodium salt. Samples were shaken for 15 min at 37 °C and sterol metabolites extracted with ethyl acetate and derivatised with BSTFA.

On to `O=C(NCC(O)(Cn1cncn1)c1ccc(Cl)cc1Cl)c1ccc(NS(=O)(=O)c2ccc(Cl)cc2)cc1` (centres unmarked) [14b, 4-((4-Chlorophenyl)sulfonamido)-N-(2-(2,4-dichlorophenyl)-2-hydroxy-3-(1H-1,2,4-triazol-1-yl)propyl)benzamide], for which the MIC in experiment [1] and in experiment [2] was 0.25 µg/mL (≈ 0.43 µM) each time. The Kd at native CaCYP51 worked out at 94 ± 24 nM. Also, in experiment [3], half-maximal inhibition (IC50) was put at 780 nM.

`CC(=O)c1cccc(C(=O)NCC(O)(Cn2cncn2)c2ccc(Cl)cc2)c1` (centres unmarked) [6a, 3-Acetyl-N-(2-(4-chlorophenyl)-2-hydroxy-3-(1H-1,2,4-triazol-1-yl)propyl)benzamide]: the MIC in experiment [1] and in experiment [2] was 0.25 µg/mL (≈ 0.627 µM) each time. In addition, at native CaCYP51, the Kd was 1440 ± 266 nM. In addition, in experiment [3], half-maximal inhibition (IC50) required 1300 nM.

As to `O=C(NCC(O)(Cn1cncn1)c1ccc(Cl)cc1Cl)c1ccc(NC(=S)Nc2ccc(Cl)cc2)cc1` (centres unmarked) [11b, 4-(3-(4-Chlorophenyl)thioureido)-N-(2-(2,4-dichlorophenyl)-2-hydroxy-3-(1H-1,2,4-triazol-1-yl)propyl)benzamide], the MIC in experiment [1] came to 0.5 µg/mL (≈ 0.868 µM); in experiment [2], 0.25 µg/mL (≈ 0.434 µM). In addition, at native CaCYP51, the Kd came out at 125 ± 41 nM. The IC50 in experiment [3] is 670 nM.

Regarding `O=C(Nc1ccc(Cl)cc1)Nc1ccc(C(=O)NCC(O)(Cn2cncn2)c2ccc(Cl)cc2)cc1` (centres unmarked) [12a, N-(2-(4-Chlorophenyl)-2-hydroxy-3-(1H-1,2,4-triazol-1-yl)propyl)-4-(3-(4-chlorophenyl)ureido)benzamide], the MIC in experiment [1] is 2 µg/mL (≈ 3.81 µM); in experiment [2], 1 µg/mL (≈ 1.9 µM).

For the compound `O=C(NCC(O)(Cn1cncn1)c1ccc(Cl)cc1)c1csc(Cl)n1` (centres unmarked) [7a, 2-Chloro-N-(2-(4-chlorophenyl)-2-hydroxy-3-(1H-1,2,4-triazol-1-yl)propyl)thiazole-4-carboxamide], the MIC in experiment [1] and in experiment [2] was 0.25 µg/mL (≈ 0.628 µM) in each case. In addition, at native CaCYP51, the Kd amounted to 635 ± 181 nM. The compound also registered an IC50 in experiment [3] of 770 nM.

On to `CC(=O)c1cccc(C(=O)NCC(O)(Cn2cncn2)c2ccc(Cl)cc2Cl)c1` (centres unmarked) [6b, 3-Acetyl-N-(2-(2,4-dichlorophenyl)-2-hydroxy-3-(1H-1,2,4-triazol-1yl)propyl)benzamide], for which, in experiment [1], the MIC is less than 0.03 µg/mL and the “MIC SC5314” value amounted to 0.06 µg/mL (≈ 0.138 µM). For the same compound, in experiment [2], the MIC was less than 0.03 µg/mL and the “MIC CA14” value was less than 0.03 µg/mL. On native CaCYP51, the Kd was 229 ± 45 nM. The IC50 in experiment [3] came to 490 nM.

For the compound `O=C(NCC(O)(Cn1cncn1)c1ccc(Cl)cc1)c1ccc(NS(=O)(=O)c2ccc(Cl)cc2)cc1` (centres unmarked) [14a, N-(2-(4-Chlorophenyl)-2-hydroxy-3-(1H-1,2,4-triazol-1-yl)propyl)-4-((4-chlorophenyl)sulfonamido)benzamide], the MIC in experiment [1] and in experiment [2] was 1 µg/mL (≈ 1.83 µM) throughout.

As to `O=C(NCC(O)(Cn1cncn1)c1ccc(Cl)cc1)c1ccc(NC(=S)Nc2ccc(Cl)cc2)cc1` (centres unmarked) [11a, N-(2-(4-Chlorophenyl)-2-hydroxy-3-(1H-1,2,4-triazol-1-yl)propyl)-4-(3-(4-chlorophenyl)thioureido)benzamide], the MIC in experiment [1] and in experiment [2] was 4 µg/mL (≈ 7.39 µM) each time.

As to `O=C(Nc1ccc(Cl)cc1)Nc1ccc(C(=O)NCC(O)(Cn2cncn2)c2ccc(Cl)cc2Cl)cc1` (centres unmarked) [12b, 4-(3-(4-Chlorophenyl)ureido)-N-(2-(2,4-dichlorophenyl)-2-hydroxy-3-(1H-1,2,4-triazol-1-yl)propyl)benzamide], the MIC in experiment [1] and in experiment [2] was 0.125 µg/mL (≈ 0.223 µM) throughout. For the same compound, the Kd on native CaCYP51 is 137 ± 14 nM. In experiment [3], this compound returned an IC50 of 470 nM.

These data come from paper PMC11931565, “Exploring medium and long arm extensions of 1,2,4-triazole derivatives as Candida albicans 14α-demethylase (CYP51) inhibitors” (RSC Medicinal Chemistry, 2025).
